The values that follow come from patent US9650408B2, “Therapeutic agent for hypertension” (SRI INTERNATIONAL, priority 2005, dated 2017).

In data set [1] the test system is spontaneously hypertensive rats (SHRs). Briefly: Blood pressure and heart rate in spontaneously hypertensive rats, tail-cuff method. In kind it is in vivo, rat. The following applies: 100 mg once a day for seven days; for change in heart rate: FIG. 6 (TAS-108), FIG. 7 (raloxifene). The procedure: TAS-108 (100 mg) was administered to nine-week-old spontaneously hypertensive rats (SHRs) once a day for consecutive seven days. Before final administration of the test drug, and 30 minutes, one hour, two hours, and four hours after the final administration, blood pressure was measured in a state where heart rate is constant by means of an […] automatic rat/mouse blood pressure measuring apparatus (BP-97A, product of Softron) according to the tail-cuff method (J. Lab. Clin. Med. 1971; 78: 957-962). For comparison, a solvent (0.5% HPMC) or raloxifene, serving as a control drug, was administered in a dose of 100 mg once a day for consecutive seven days.
Percent increase/decrease in blood pressure after final administration of the test drug was obtained on the basis of the blood pressure as measured before final administration of the drug, and the thus-obtained values were compared with one another.

The subject of data set [2] is postmenopausal hypertensive patients. The following applies: 142±13 mmHg before; cited from earlier work.
Data set [3] deals with postmenopausal breast cancer patients. As to the kind of experiment: Blood pressure in postmenopausal breast cancer patients given oral TAS-108. In kind it is in vivo, human. The procedure:
TAS-108 (40 mg, 80 mg, or 120 mg) was orally administered to postmenopausal breast cancer patients (age: 50 to 78) once a day after breakfast for up to eight weeks. Blood pressure was measured in a sitting position before administration on the day of initiation of administration, and two weeks, four weeks, and eight weeks after initiation of administration.

A further data set relates to estrogen receptor (ER). Particulars: cited from earlier work.
The target in another data set is T1, estrogen receptor α (Homo sapiens, UniProt P03372).
T1 sequence (P03372 1-595): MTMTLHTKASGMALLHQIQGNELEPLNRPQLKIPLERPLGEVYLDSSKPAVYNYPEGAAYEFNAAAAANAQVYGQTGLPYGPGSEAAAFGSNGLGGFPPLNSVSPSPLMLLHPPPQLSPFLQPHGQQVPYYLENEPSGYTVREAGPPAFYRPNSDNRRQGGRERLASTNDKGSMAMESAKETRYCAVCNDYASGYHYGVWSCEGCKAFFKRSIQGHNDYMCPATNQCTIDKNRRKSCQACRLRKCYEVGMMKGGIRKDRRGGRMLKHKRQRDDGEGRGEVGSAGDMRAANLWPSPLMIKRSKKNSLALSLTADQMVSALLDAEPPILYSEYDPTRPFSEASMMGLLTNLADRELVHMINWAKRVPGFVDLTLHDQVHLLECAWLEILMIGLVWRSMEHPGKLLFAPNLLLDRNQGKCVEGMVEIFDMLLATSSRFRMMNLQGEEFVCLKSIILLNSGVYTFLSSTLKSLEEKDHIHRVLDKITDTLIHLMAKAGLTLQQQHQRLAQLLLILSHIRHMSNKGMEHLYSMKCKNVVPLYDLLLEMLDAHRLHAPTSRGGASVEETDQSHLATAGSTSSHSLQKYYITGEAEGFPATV
The following applies: cited from earlier work.

Where [4] appears, read: SHR, during the course of measurement, FIG. 7.
[5] abbreviates: SHR, relative to pressure before final administration, FIG. 5.

Consider `O=C(c1ccc(OCCN2CCCCC2)cc1)c1c(-c2ccc(O)cc2)sc2cc(O)ccc12` [raloxifene, reference compound], for which the “change in heart rate” value in data set [1] (SHR) is “no considerable change”. Moreover, in data set [1] (setting [4]), the “change in diastolic blood pressure” value was “no considerable change”, the “change in mean blood pressure” value is “no considerable change” and the “change in systolic blood pressure” value was “no considerable change”. In data set [2], the “systolic blood pressure after administration” value is 139±10 mmHg.
For `CCN(CC)Cc1ccc(OCC[C@H]2CCC3C4C(CC[C@@]32C)c2ccc(O)cc2C[C@H]4C)c(OC)c1` (stereo partly drawn) [TAS-108, (7α)-21-[4-[(Diethylamino)methyl]-2-methoxyphenoxy]-7-methyl-19-norpregna-1,3,5(10)-trien-3-ol], the “systolic or diastolic blood pressure” value in data set [3] (four hypertensive patients (systolic 140 mmHg or higher or diastolic 90 mmHg or higher), 40, 80 or 120 mg orally once a day, two to four weeks after initiation, FIGS. 1 to 3) is “reduced to fall within a normal pressure range”. For the same compound, the “change in blood pressure” value in data set [3] (remaining 11 breast cancer patients with normal blood pressure, during the course of administration, FIG. 4) was “no considerable change in blood pressure”. The “reduction of systolic blood pressure” value in data set [3] (typical hypertensive patient (FIG. 2), four weeks after initiation of administration) is given as “about 40 mmHg”. Further, the “systolic blood pressure after administration” value in data set [3] (typical hypertensive patient (FIG. 2), four weeks after initiation, 180 mmHg before administration) is listed as 138 mmHg. In addition, in data set [1] (SHR), the “change in heart rate” value is “No considerable change in heart rate”. Also, the “time of maximum percent decrease in blood pressure” value in data set [1] (SHR, after final administration, FIG. 5) was “two hours after administration”. For the same compound, in data set [1] (setting [5]), the “reduction of diastolic blood pressure” value is on record as 46.9% and the “reduction of mean blood pressure” value was found to be 28.6%. Also, the blood pressure result in data set [1] (all SHRs, one to two hours after final administration) was “blood pressure was reduced”. Further, the “affinity to estrogen receptor (ER)” value in the data set on estrogen receptor (ER) is on record as “strong affinity”. At estrogen receptor α, the “agonistic effect on estrogen receptor α” value is listed as “virtually no agonistic effect” and the “antagonistic effect on estrogen receptor α” value was “potent antagonistic effect”.
